Laboratory results: patent US11066681B2, “Production of itaconic acid” (LESAFFRE ET COMPAGNIE, priority 2016, dated 2021)
“Also recorded” adds a separate entry of the source.

Assays:
[1] = tested on: A. niger AB1.13 CAD 4.1 (CBS 141653) strain; experiment: Itaconic acid toxicity: shakeflask growth in M12+Cu with added IA, biomass dry weight; assay type: cell-based, Aspergillus niger
Description: FIG. 4: Growth of AB1.13 CAD 4.1 (CBS 141653) strain in M12+Cu supplemented with several concentrations of itaconic acid. Medium devoid of C-source is used as negative control. An extracellular concentration of 10 g/l IA in the production medium results in an 75% decrease in biomass development.
Shakeflasks (500 mL) were prepared with 100 mL M12+Cu supplemented with the following IA concentrations: 0, 10, 20, 40, 75 g/l and pH was adjusted to 2.3 by addition of KOH/H2SO4. The flasks were inoculated with 1 mL of overnight grown pre-culture. After 7 days the mycelium was harvested and the biomass was determined by measuring the dry weight. The effect of IA on the growth of A. niger was tested using the AB1.13 CAD 4.1 (CBS 141653) strain. As shown in FIG. 4 the growth of A. niger is already hampered at concentrations of 10 g/l IA in the extracellular medium.

[2] = tested on: trans-aconitate 2-methyltransferase (An16g06510); experiment: Gene expression analysis (RNA-Seq) in A. niger IA producing strains; assay type: cell-based, Aspergillus niger; settings: IA producing A. niger strains in controlled fermentation
Description: Similarly, genome wide gene expression analysis of Aspergillus niger strains expressing a functional itaconic acid pathway grown in fermenters was carried out to identify genes co-regulated by the expression of the itaconic acid gene cluster. The following strains were investigated: AB1.13 WT, AB1.13 CAD 4.1 (CBS141653), AB1.13 #49B (CBS141657), CitB #99 (CBS141659), and CitB #113.
Controlled batch-cultivations were performed on 5 L scale benchtop New Brunswick Scientific fermenters (BioFlo 3000) at 33° C. Starting pH was 3.5 after inoculation and medium was allowed to naturally acidify till pH 2.3 and then kept at pH 2.3 by addition of 4M KOH. […]
BaseClear in Leiden, NL performed digital gene expression profiling experiments based on RNA-Seq with an Illumina HiSeq 2000 System. Approximately 8-32 M unfiltered paired-end (PE) reads (99 bp/read on ˜320 bp cDNA inserts) were obtained. […] The reads were then further filtered, such that all quality phred scores after filtering are at least 22, with a read-length of at least 40 bases. […] After filtering the #PE-reads/samples were between 7.6M and 19.8M for all the samples respectively.
Reads were aligned to the 20 contigs in a FastA file of the Aspergillus niger reference genome (from www.ebi.ac.uk). […] The reads were aligned to the reference genome using software based on a Burrows-Wheeler Transform (BWT) algorithm. […]

[3] = tested on: Itaconyl CoA transferase ATEG_06299; settings: 40 g/l IA addition to culture medium; cited from earlier work
[4] = tested on: Itaconyl CoA hydratase ATEG_03709; settings: 40 g/l IA addition to culture medium; cited from earlier work
[5] = tested on: Citramalyl-CoA lyase ATEG_03186; settings: 40 g/l IA addition to culture medium; cited from earlier work
[6] = tested on: Trans-aconitate 3-methyltransferase (tmt-1) ATEG_06208; settings: 40 g/l IA addition to culture medium; cited from earlier work
[7] = tested on: Trans-aconitate 2-methyltransferase ATEG_04223; settings: 40 g/l IA addition to culture medium; cited from earlier work

With `C=C(CC(=O)O)C(=O)O` [IA, itaconic acid] the “growth of A. niger” value ([1]; 10 g/l IA in the extracellular medium, M12+Cu, 7 days) was “hampered”, the “growth at higher IA concentrations” value ([1]; 20 g/l IA and higher (20, 40 and 75 g/l), M12+Cu, 7 days, 33° C.) was “detrimental effects of IA on growth become more evident; also recorded: further deteriorated growth” and the “decrease in biomass development” value ([1]; extracellular 10 g/l IA in production medium M12+Cu, pH 2.3, 7 days, 33° C.) was 75%. The “gene expression, effect of itaconic acid” value [2] was “induced”, the Induced [3] was “induced” and the “induced expression level (RKPM)” value [3] was 130 RKPM. The x-fold [3] was 8.2 x-fold, the Induced [4] was “induced” and the “induced expression level (RKPM)” value [4] was 320 RKPM. For the same compound, the x-fold [4] was 2.3 x-fold, the Induced [5] was “induced” and the “induced expression level (RKPM)” value [5] was 150 RKPM. The x-fold [5] was 5.4 x-fold, the Induced [6] was “not induced” and the “induced expression level (RKPM)” value [6] was “<(4) RKPM”. The Induced [7] was “not induced” and the “induced expression level (RKPM)” value [7] was “<(25) RKPM”.
